From ChEMBL document CHEMBL5537181 (J Med Chem, 2024)
pIC50: −log10 of the molar value. The source made the active and inactive calls. No cut-off for these calls is given here.

What was measured:
[1] = molecular target: Neuronal acetylcholine receptor; alpha3/beta2 (Homo sapiens) (UniProt P17787+P32297); assay: Antagonist activity at human alpha3beta2 nAChR expressed in acetylcholine-induced Xenopus laevis oocytes assessed as inhibition of acetylcholine-induced current at 30 nM by two electrode voltage-clamp assay; format: cell-based; conditions: Oocyte
[2] = molecular target: Neuronal acetylcholine receptor subunit alpha-7 (Homo sapiens, UniProt P36544); assay: Antagonist activity at human alpha7 nAChR expressed in acetylcholine-induced Xenopus laevis oocytes assessed as inhibition of acetylcholine-induced current by two electrode voltage-clamp assay; format: cell-based, Oocyte
[3] = molecular target: Neuronal acetylcholine receptor; alpha9/alpha10 (Homo sapiens, UniProt Q9GZZ6+Q9UGM1); assay: Antagonist activity at human wild type alpha9alpha10 nAChR expressed in acetylcholine-induced Xenopus laevis oocytes assessed as inhibition of acetylcholine-induced current at 1:1 ratio of protein by two electrode voltage-clamp assay; format: cell-based, Oocyte
Rattus norvegicus = assay: Analgesic activity in Chronic constriction injury rat model assessed as decrease in hyperalgesia at 250 microg/kg,IM administrated every 2 hrs for 14 days; format: functional, organism-based; conditions: dose 250.0 µg/kg, time 14.0 day
[4] = molecular target: Neuronal acetylcholine receptor; alpha9/alpha10 (Homo sapiens) (UniProt Q9UGM1+Q9GZZ6); assay: Antagonist activity at human alpha9alpha10 nAChR expressed in acetylcholine-induced Xenopus laevis oocytes assessed as inhibition of acetylcholine-induced current at 30 nM at -80 mV holding potential by two electrode voltage-clamp assay; format: cell-based; conditions: Oocyte, filed as antagonist
[5] = molecular target: T1, Voltage-dependent N-type calcium channel subunit alpha-1B (Homo sapiens, UniProt Q00975); assay: Inhibition of human Cav2.2 channel transfected in HEK293T cells assessed as inhibition of Cav2.2-mediated Ba2+ current at 1 uM measured for 3 to 5 days by whole-cell patch clamp assay relative to control; format: cell-based; conditions: time 3-5 day
[6] = Antagonist activity at human alpha9N152G mutant alpha10 nAChR expressed in acetylcholine-induced Xenopus laevis oocytes assessed as inhibition of acetylcholine-induced current at 1:3 ratio of protein by two electrode voltage-clamp assay; format: cell-based; conditions: Oocyte
[7] = molecular target: T1, Voltage-dependent N-type calcium channel subunit alpha-1B; assay: Inhibition of human Cav2.2 channel transfected in HEK293T cells co-expressed with human GABAB receptor assessed as inhibition of Cav2.2-mediated Ba2+ current at 100 nM in presence of CGP 55845 measured for 3 to 5 days by whole-cell patch clamp assay; format: cell-based; conditions: time 3-5 day

T1 sequence (Q00975 whole entry, looked up): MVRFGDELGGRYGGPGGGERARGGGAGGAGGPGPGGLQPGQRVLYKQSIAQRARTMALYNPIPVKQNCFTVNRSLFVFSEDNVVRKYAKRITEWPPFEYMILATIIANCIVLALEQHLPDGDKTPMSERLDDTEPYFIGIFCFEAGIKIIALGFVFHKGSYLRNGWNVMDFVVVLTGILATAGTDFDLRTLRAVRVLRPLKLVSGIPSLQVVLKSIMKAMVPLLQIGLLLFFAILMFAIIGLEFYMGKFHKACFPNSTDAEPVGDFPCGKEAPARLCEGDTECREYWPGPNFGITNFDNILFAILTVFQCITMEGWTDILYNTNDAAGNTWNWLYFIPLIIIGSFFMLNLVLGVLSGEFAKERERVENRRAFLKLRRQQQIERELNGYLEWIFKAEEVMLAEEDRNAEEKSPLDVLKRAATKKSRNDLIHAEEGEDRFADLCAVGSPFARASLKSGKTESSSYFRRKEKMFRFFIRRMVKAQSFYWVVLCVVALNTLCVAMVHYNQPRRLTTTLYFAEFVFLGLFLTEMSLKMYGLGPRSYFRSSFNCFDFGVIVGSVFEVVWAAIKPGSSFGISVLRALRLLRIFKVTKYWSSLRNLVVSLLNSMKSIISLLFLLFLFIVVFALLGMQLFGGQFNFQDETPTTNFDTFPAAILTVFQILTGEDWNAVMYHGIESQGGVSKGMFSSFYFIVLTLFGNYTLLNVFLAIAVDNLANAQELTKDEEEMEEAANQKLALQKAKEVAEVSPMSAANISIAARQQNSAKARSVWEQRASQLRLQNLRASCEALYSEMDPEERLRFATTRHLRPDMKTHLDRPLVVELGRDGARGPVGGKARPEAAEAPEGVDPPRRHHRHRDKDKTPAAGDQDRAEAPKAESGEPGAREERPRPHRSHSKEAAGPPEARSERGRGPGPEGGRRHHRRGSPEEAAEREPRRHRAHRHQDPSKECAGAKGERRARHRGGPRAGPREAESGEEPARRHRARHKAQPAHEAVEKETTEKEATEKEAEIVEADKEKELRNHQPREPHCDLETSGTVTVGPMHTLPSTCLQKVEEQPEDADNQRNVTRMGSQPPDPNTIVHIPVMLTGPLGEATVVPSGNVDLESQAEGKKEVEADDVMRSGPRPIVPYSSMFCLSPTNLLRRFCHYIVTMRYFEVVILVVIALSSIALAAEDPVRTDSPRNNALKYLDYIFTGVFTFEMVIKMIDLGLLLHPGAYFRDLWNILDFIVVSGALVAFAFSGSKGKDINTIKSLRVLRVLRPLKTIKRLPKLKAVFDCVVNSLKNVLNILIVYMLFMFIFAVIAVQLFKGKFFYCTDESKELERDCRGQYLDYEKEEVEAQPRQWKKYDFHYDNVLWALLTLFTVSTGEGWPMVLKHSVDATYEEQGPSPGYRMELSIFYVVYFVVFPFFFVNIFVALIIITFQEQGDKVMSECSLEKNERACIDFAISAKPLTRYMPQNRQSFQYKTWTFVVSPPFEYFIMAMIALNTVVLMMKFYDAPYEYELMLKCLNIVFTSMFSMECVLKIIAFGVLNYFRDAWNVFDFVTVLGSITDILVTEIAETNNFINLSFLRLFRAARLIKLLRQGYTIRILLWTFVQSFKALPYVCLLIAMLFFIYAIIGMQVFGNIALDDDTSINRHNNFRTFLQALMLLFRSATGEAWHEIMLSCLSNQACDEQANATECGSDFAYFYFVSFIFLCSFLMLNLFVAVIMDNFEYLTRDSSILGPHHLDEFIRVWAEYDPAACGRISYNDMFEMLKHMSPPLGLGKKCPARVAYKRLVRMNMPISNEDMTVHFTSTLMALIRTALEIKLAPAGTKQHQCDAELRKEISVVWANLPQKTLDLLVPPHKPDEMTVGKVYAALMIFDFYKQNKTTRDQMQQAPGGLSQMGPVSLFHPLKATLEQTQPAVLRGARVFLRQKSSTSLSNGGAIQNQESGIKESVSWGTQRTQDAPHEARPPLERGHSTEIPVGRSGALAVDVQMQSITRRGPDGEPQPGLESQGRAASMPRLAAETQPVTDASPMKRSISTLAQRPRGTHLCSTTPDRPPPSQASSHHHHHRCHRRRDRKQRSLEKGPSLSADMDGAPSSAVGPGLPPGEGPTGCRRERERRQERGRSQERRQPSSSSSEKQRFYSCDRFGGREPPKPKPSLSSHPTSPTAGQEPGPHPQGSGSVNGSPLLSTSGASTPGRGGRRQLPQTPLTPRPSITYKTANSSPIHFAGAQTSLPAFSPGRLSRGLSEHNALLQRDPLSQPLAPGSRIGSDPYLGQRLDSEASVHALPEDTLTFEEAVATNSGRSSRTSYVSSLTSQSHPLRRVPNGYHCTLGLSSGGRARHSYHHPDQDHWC
Neuronal acetylcholine receptor; alpha9/alpha10, sequence (Q9UGM1 whole entry): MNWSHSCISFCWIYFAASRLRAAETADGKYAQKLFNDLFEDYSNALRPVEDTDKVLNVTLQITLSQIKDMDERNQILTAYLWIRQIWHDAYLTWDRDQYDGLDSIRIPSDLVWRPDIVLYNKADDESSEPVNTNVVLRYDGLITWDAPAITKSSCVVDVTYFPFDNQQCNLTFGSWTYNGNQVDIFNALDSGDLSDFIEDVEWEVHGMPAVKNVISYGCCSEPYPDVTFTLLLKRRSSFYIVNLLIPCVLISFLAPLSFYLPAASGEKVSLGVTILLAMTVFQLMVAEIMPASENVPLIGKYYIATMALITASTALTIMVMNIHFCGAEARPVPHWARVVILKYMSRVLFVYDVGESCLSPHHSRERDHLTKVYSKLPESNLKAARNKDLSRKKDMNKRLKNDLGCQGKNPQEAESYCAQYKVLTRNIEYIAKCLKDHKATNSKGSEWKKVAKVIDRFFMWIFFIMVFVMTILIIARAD
Neuronal acetylcholine receptor; alpha9/alpha10, sequence (Q9GZZ6 whole entry): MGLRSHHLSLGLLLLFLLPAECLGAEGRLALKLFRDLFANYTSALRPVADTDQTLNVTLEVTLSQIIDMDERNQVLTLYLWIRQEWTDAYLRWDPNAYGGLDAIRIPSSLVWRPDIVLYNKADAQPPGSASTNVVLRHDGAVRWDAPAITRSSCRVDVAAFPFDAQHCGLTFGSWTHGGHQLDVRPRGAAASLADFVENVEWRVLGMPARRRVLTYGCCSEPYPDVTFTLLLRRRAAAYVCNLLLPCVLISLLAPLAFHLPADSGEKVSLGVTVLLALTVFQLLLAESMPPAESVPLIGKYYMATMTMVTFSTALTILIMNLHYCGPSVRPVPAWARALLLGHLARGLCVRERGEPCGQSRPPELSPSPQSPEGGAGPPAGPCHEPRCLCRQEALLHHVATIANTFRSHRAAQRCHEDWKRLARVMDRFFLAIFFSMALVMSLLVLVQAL
Neuronal acetylcholine receptor subunit alpha-7, sequence (P36544 whole entry): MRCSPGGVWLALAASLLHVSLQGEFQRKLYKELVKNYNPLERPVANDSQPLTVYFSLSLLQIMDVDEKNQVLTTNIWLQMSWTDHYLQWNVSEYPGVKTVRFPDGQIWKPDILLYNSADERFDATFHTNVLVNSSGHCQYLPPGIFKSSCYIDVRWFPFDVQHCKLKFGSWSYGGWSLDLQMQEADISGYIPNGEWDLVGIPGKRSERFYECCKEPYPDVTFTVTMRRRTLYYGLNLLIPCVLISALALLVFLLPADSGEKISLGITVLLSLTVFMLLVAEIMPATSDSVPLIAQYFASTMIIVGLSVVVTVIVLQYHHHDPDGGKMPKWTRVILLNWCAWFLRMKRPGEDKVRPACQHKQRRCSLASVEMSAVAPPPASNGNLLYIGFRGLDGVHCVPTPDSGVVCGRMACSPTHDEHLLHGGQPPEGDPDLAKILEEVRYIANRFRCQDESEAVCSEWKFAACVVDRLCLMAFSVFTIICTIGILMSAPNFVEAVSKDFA

With `CC[C@H](C)[C@H](NC(=O)[C@H](CCCNC(=N)N)NC(=O)[C@H](CCCNC(=N)N)NC(=O)[C@H](Cc1ccc(O)cc1)NC(=O)[C@H](CCCNC(=N)N)NC(=O)[C@H](CCCNC(=N)N)NC(=O)[C@H](CCCNC(=N)N)NC(=O)[C@H](CCCNC(=N)N)NC(=O)[C@H](CC(=O)O)NC(=O)[C@H](Cc1ccc(O)cc1)NC(=O)[C@@H]1CCCN1C(=O)[C@H](CO)NC(=O)[C@H](CCCNC(=N)N)NC(=O)[C@H](Cc1ccc(O)cc1)NC(=O)[C@H](CCCNC(=N)N)NC(=O)CN)C(=O)N[C@H](C(=O)N[C@@H](CC(=O)O)C(N)=O)[C@@H](C)O` the inhibition [1] was “inactive”, the pIC50 [2] was 7.36 and the pIC50 [3] was 7.59. The Activity (Rattus norvegicus) was “Active”, the inhibition [4] was “Active” and the inhibition [5] was 53.6%. For the same compound, the pIC50 [6] was 8.06 and the inhibition [7] was “inactive”.
